Assay results reported in patent publication US7414110B2, “Human calcium channel compositions and methods” (Merck & Co., Inc., priority 1990, dated 2008).

Legend:
[1] = test system: untransfected HEK 293 cells; test: whole-cell patch clamp, untransfected HEK 293 cells; format: cell-based, human; conditions: with or without cAMP or forskolin
[2] = target: T1, α1B-1α2bβ1-2 (Homo sapiens, UniProt Q00975, Y99N); format: cell-based
T1 construct: contains, in pcDNA1, a full-length coding region encoding α1B-1; expressed in transfected cells; host or cells: HEK293 cells, transient
Target sequence in this assay (Q00975 whole entry Y99N): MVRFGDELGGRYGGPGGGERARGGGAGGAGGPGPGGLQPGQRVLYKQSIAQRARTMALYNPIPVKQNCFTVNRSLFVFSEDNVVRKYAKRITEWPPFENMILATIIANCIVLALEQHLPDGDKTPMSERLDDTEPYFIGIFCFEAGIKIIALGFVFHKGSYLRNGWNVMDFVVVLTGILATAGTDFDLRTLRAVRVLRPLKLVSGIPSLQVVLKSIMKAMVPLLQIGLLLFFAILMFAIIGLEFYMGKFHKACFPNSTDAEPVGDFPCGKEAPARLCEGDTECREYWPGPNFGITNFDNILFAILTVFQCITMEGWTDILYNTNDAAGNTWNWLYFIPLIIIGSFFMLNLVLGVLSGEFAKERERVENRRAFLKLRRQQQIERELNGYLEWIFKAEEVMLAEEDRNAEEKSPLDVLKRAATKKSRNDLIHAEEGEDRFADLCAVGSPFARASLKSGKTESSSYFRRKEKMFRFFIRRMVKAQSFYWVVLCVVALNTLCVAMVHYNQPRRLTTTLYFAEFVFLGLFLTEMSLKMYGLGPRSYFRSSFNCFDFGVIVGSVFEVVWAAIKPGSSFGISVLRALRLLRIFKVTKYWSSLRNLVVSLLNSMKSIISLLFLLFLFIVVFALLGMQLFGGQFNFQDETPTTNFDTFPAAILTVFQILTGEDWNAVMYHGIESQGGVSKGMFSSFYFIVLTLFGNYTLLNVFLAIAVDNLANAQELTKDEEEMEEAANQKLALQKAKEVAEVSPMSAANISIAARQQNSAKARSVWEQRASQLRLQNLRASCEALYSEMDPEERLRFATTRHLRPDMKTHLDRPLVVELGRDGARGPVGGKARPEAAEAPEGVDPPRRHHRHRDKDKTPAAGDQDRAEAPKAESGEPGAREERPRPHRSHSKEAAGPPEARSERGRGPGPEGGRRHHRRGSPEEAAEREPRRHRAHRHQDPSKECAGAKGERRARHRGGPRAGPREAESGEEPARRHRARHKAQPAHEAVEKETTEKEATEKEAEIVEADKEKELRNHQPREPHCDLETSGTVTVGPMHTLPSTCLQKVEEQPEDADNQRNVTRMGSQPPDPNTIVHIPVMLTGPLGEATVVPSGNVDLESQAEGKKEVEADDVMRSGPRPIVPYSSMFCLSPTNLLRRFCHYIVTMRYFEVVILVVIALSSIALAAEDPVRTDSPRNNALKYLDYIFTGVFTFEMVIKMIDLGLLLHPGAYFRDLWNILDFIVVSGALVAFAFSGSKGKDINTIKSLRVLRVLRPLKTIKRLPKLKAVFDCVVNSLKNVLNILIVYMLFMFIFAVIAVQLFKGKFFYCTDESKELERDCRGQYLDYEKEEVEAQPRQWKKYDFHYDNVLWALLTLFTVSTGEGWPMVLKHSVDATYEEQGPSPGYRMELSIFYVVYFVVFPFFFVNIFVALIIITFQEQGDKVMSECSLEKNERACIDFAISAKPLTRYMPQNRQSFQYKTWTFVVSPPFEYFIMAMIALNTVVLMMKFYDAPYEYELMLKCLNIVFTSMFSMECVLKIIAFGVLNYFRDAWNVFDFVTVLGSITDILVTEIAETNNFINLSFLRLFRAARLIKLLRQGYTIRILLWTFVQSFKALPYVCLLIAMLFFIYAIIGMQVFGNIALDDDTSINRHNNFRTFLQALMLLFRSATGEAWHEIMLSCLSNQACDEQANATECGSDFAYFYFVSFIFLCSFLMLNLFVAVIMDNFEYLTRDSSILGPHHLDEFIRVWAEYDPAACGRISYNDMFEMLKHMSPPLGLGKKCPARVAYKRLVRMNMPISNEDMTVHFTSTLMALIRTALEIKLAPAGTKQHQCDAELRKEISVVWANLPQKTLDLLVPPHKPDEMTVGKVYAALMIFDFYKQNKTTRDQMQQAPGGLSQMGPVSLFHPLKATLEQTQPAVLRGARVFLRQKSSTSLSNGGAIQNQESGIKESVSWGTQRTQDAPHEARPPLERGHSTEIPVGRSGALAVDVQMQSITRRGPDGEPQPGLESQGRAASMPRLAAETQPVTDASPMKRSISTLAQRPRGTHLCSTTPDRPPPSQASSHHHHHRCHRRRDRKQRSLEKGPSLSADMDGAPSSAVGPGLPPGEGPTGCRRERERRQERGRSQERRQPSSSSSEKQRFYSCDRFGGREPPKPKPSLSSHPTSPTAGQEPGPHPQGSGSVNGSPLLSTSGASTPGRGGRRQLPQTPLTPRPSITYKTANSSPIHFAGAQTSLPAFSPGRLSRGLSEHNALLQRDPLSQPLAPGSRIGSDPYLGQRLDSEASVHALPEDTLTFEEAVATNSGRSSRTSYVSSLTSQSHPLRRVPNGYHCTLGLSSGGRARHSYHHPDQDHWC
Target sequence in this assay (as listed by the source partner): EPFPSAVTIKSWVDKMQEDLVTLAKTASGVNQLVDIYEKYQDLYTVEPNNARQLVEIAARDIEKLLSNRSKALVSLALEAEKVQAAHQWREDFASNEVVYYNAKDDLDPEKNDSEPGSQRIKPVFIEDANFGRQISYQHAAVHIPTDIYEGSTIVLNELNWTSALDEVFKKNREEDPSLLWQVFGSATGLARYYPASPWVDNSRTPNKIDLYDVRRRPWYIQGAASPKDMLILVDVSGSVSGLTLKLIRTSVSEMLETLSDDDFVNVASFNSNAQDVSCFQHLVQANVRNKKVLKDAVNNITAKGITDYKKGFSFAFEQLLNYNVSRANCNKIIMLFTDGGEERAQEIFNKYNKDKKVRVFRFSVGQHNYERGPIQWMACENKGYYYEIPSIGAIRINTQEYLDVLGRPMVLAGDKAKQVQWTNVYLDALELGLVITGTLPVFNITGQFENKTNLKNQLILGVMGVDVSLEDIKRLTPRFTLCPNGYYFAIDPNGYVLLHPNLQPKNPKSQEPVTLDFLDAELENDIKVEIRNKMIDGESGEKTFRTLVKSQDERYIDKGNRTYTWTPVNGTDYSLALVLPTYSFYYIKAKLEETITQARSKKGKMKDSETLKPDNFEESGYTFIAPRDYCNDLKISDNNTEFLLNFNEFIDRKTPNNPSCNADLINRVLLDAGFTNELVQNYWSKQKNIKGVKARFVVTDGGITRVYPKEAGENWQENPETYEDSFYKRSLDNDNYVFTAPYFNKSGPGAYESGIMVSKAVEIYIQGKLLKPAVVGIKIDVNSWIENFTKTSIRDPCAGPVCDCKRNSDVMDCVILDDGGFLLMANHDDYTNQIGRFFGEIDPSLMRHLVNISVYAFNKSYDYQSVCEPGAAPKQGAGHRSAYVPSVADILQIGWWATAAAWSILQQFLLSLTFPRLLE
Target sequence in this assay (as listed by the source partner): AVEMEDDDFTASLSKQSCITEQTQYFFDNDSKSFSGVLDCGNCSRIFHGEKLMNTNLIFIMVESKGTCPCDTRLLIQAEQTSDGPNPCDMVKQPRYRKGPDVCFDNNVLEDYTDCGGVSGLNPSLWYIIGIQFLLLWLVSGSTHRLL
Target sequence in this assay (as listed by the source partner): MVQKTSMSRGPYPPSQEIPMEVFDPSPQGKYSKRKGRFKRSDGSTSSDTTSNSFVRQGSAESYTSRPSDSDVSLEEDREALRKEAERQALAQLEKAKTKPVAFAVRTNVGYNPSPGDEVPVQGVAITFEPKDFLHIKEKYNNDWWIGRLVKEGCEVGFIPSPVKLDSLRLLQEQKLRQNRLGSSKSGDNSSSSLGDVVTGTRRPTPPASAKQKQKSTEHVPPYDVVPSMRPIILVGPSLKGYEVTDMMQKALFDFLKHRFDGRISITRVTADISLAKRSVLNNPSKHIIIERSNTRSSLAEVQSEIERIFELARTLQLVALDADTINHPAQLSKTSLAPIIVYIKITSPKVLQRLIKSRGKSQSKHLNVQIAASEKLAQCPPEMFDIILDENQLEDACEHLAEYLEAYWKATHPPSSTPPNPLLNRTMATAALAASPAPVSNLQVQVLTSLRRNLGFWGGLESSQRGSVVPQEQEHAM

[3] = test system: human neuronal calcium channel α2 and β1 subunits; test: two-electrode voltage clamp, oöcytes injected with α2 and β1 transcripts; conditions: n=11
[4] = target: human neuronal calcium channel α1D and β1 subunits (Homo sapiens, UniProt Q01668, S1346F/Y1433H); test: two-electrode voltage clamp, oöcytes injected with α1D and β1 transcripts; conditions: two of four oöcytes; compared with α1D, α2, β1 oöcytes
[5] = target: human neuronal calcium channel α1D and α2 subunits (Homo sapiens, UniProt Q01668, S1346F/Y1433H); test: two-electrode voltage clamp, oöcytes injected with α1D and α2 transcripts; conditions: 15-30 nA currents; holding potential −90 mV
[6] = target: T1, α1B-1α2bβ1-2; format: binding
Target sequence in this assay (Q00975 whole entry Y99N): as the sequence (Q00975 whole entry Y99N) above

[7] = target: T2, α1B-1α2bβ1-3 (Homo sapiens, UniProt Q00975, Y99N); format: binding
T2 construct: contains, in pcDNA1, a full-length coding region encoding α1B-1; expressed in transfected cells; host or cells: HEK293 cells, transient

[8] = target: T3, α1B-1β1-2 (Homo sapiens, UniProt Q00975, Y99N); format: binding
T3 construct: contains, in pcDNA1, a full-length coding region encoding α1B-1; expressed in transfected cells; host or cells: HEK293 cells, transient

[9] = target: T4, α1B-1β1-3 (Homo sapiens, UniProt Q00975, Y99N); format: binding
T4 construct: contains, in pcDNA1, a full-length coding region encoding α1B-1; expressed in transfected cells; host or cells: HEK293 cells, transient

[10] = target: T5, α1B-1α2b (Homo sapiens, UniProt Q00975, Y99N); format: binding
T5 construct: contains, in pcDNA1, a full-length coding region encoding α1B-1; expressed in transfected cells; host or cells: HEK293 cells, transient

[11] = target: T6, α1B-1 (Homo sapiens, UniProt Q00975, Y99N); format: binding
T6 construct: contains, in pcDNA1, a full-length coding region encoding α1B-1; expressed in transfected cells; host or cells: HEK293 cells, transient

[12] = target: T7, α1B-2α2bβ1-2 (Homo sapiens, UniProt Q00975, L2215R/Y99N); format: binding
T7 construct: Full-length DNA clones and corresponding RNA transcripts, encoding α1, including splice variants of α1A, α1D, α1B; expressed in transfected cells; host or cells: HEK293 cells, transient

[13] = target: T8, α1B-2α2bβ1-3 (Homo sapiens, UniProt Q00975, L2215R/Y99N); format: binding
T8 construct: Full-length DNA clones and corresponding RNA transcripts, encoding α1, including splice variants of α1A, α1D, α1B; expressed in transfected cells; host or cells: HEK293 cells, transient

[14] = target: T9, α1B-2β1-2 (Homo sapiens, UniProt Q00975, L2215R/Y99N); format: binding
T9 construct: Full-length DNA clones and corresponding RNA transcripts, encoding α1, including splice variants of α1A, α1D, α1B; expressed in transfected cells; host or cells: HEK293 cells, transient

[15] = target: T10, α1B-2β1-3 (Homo sapiens, UniProt Q00975, L2215R/Y99N); format: binding
T10 construct: Full-length DNA clones and corresponding RNA transcripts, encoding α1, including splice variants of α1A, α1D, α1B; expressed in transfected cells; host or cells: HEK293 cells, transient

[16] = target: T11, α1B-2α2b (Homo sapiens, UniProt Q00975, L2215R/Y99N); format: binding
T11 construct: Full-length DNA clones and corresponding RNA transcripts, encoding α1, including splice variants of α1A, α1D, α1B; expressed in transfected cells; host or cells: HEK293 cells, transient

[17] = target: T12, α1B-2 (Homo sapiens, UniProt Q00975, L2215R/Y99N); format: binding
T12 construct: Full-length DNA clones and corresponding RNA transcripts, encoding α1, including splice variants of α1A, α1D, α1B; expressed in transfected cells; host or cells: HEK293 cells, transient

[18] = test system: subunit combinations lacking either the α1B-1 or the α1B-2 subunit
[19] = target: T13, α1B-1, α2b and β1-2 subunits (Homo sapiens, UniProt Q00975, Y99N); format: binding
T13 construct: contains, in pcDNA1, a full-length coding region encoding α1B-1; expressed in transfected cells; host or cells: HEK293 cells, transient

[20] = test system: cells transfected with only β-galactosidase-encoding DNA or α2bβ-encoding DNA
[21] = test system: untransfected HEK293 cells
[22] = test system: calcium channels containing α1E subunits; format: cell-based, human

T6 sequence (Q00975 whole entry Y99N): as above
T13 sequence (Q00975 whole entry Y99N): as above
T5 sequence (Q00975 whole entry Y99N): as above

COC(=O)C1=C(C)NC(C)=C([N+](=O)[O-])C1c1ccccc1C(F)(F)F (stereo not drawn) [Bay K 8644]
effects of Bay K 8644 on currents [1]: No such effects
effect on IBa ([2]; n=4): no discernable effect
sensitivity of inward barium currents to Bay K 8644 [3]: insensitive
sensitivity of Ba2+ currents to Bay K 8644 [4]: similar
response of barium currents to Bay K 8644 [5]: little or no response

C[C@@H](O)[C@@H]1NC(=O)[C@H](Cc2ccc(O)cc2)NC(=O)[C@@H]2C[C@@H](O)CN2C(=O)[C@H](CC(N)=O)NC(=O)[C@@H]2CSSC[C@@H]3NC(=O)[C@H](CO)NC(=O)[C@H](CO)NC(=O)CNC(=O)[C@@H]4C[C@@H](O)CN4C(=O)[C@H](CO)NC(=O)[C@H](CCCCN)NC(=O)[C@@H](N)CSSC[C@H](NC(=O)[C@H](CSSC[C@@H](C(=O)N[C@@H](Cc4ccc(O)cc4)C(N)=O)NC(=O)[C@H](CCCNC(=N)N)NC(=O)[C@H](CCCCN)NC1=O)NC(=O)[C@H](CC(N)=O)NC(=O)[C@H](Cc1ccc(O)cc1)NC(=O)[C@H](CO)NC(=O)[C@H]([C@@H](C)O)NC(=O)[C@@H]1C[C@@H](O)CN1C(=O)[C@H](CO)NC3=O)C(=O)N[C@@H](CCCNC(=N)N)C(=O)N[C@@H](CO)C(=O)N2 [125I-ω-CgTx GVIA]
Bmax (sites/cell) [6]: 45,324 ± 15,606 sites/cell
Bmax (sites/cell) [7]: 91,004 ± 37,654 sites/cell
Bmax (sites/cell) [8]: 5,756 ± 2,163 sites/cell
Bmax (sites/cell) [9]: 8,729 ± 2,980 sites/cell
Bmax (sites/cell) [10]: 2,256 ± 356 sites/cell
Bmax (sites/cell) [11]: 757 ± 128 sites/cell
number of binding sites [11]: approximately 750 binding sites/cell
Bmax (sites/cell) [12]: 19,371 ± 3,798 sites/cell
Bmax (sites/cell) [13]: 37,652 ± 8,129 sites/cell
Bmax (sites/cell) [14]: 2,126 ± 412 sites/cell
Bmax (sites/cell) [15]: 2,944 ± 1,168 sites/cell
Kd (pM) [16]: too low for reliable Scatchard analysis
Kd (pM) [17]: too low for reliable Scatchard analysis
detectable 125I-ω-CgTx GVIA binding [18]: ≤ 600 sites/cell

C[C@@H](O)[C@@H]1NC(=O)[C@H](Cc2ccc(O)cc2)NC(=O)[C@@H]2C[C@@H](O)CN2C(=O)[C@H](CC(N)=O)NC(=O)[C@@H]2CSSC[C@@H]3NC(=O)[C@H](CO)NC(=O)[C@H](CO)NC(=O)CNC(=O)[C@@H]4C[C@@H](O)CN4C(=O)[C@H](CO)NC(=O)[C@H](CCCCN)NC(=O)[C@@H](N)CSSC[C@H](NC(=O)[C@H](CSSC[C@@H](C(=O)N[C@@H](Cc4ccc(O)cc4)C(N)=O)NC(=O)[C@H](CCCNC(=N)N)NC(=O)[C@H](CCCCN)NC1=O)NC(=O)[C@H](CC(N)=O)NC(=O)[C@H](Cc1ccc(O)cc1)NC(=O)[C@H](CO)NC(=O)[C@H]([C@@H](C)O)NC(=O)[C@@H]1C[C@@H](O)CN1C(=O)[C@H](CO)NC3=O)C(=O)N[C@@H](CCCNC(=N)N)C(=O)N[C@@H](CO)C(=O)N2 [ωCgTX]
block of activity [2]: blocked the activity completely
block of channels [2]: blocked irreversibly
time to complete block [2]: ≤ 2 min
binding capacity (Bmax) [19]: 28,710±11,950 sites per cell
specific binding [20]: no specific binding
detectable ω-CgTx GVIA binding sites [21]: do not express detectable

[Cd] [cadmium]
blockage of IBa ([2]; 50 μM): rapid, complete, and reversible

ω-Aga-IVA: funnel web spider toxin that blocks certain high voltage activated channels (KKKCIAKDYGRCKWGGTPCCRGRGCICSIMGTNCECKPRLIMEGLGLA)
sensitivity of channels containing α1E subunits [22]: sensitive
